{"source": "paper PMC9460159", "about": "(iScience, 2022)", "molecules": {"B1": {"name": "YciM cytoplasmic domain of S. typhimurium (domain or fragment, UniProt A0A0F6B1Z6 136-389, looked up)", "chain": "ETEFRVGALQQLLQIYQLTSDWQKAIEVAERLVKLGKDKQRIEIAHFYCELALQQMGNDDMDRAMALLKKGAAADKNSARVSIMMGRVYMARGDYAKAVESLQRVIVQDKELVSETLEMLQTCYQQLGKNAEWAEFLRRAVEENTGAGAELMLADILEAREGSDAAQVYITRQLQRHPTMRVFHKLMDYHLNEAEEGRAKESLMVLRDMVGEQVRSKPRYRCQKCGFTAYTLYWHCPSCRAWSTIKPIRGLDGQ"}}, "key": {"YciM": {"biological_target": "T1, YciM (Salmonella enterica, UniProt Q7CQG6)", "T1 sequence (Q7CQG6 23-389)": "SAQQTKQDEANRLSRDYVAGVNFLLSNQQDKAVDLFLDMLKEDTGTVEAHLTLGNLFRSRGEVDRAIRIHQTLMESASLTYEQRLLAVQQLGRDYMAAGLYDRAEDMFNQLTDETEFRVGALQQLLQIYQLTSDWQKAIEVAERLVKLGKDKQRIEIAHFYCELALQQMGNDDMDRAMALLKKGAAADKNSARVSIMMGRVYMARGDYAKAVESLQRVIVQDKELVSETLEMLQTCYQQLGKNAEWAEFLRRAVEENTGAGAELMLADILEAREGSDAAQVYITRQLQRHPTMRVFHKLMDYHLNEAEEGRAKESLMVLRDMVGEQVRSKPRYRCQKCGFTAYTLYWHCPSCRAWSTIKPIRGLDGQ", "assay": "isothermal titration calorimetry, single-site fit", "format": "binding"}, "crystal structure": {"biological_target": "the molecule itself", "assay": "crystal structure"}}}
{"molecule": "CCCCCCCCCCCC(O)CC(=O)O", "note": "(centres unmarked) [3-hydroxymyristic acid]", "values": [{"measurement": "Kd", "setting": "YciM", "value": "1.25 ± 0.88", "unit": "µM"}]}
{"molecule": "B1", "values": [{"measurement": "binding result", "setting": "crystal structure", "value": "binds"}]}
